Measured values reported in ChEMBL document CHEMBL5032516, “Synthesis and structural characterization of a monocarboxylic inhibitor for GRB2 SH2 domain” (Bioorg Med Chem Lett, 2021).

How the values were obtained:
[1] = Permeability of compound assessed as percentage transport at 500 uM after 5 hrs by PAMPA assay; format: ADME
[2] = target: T1, Growth factor receptor-bound protein 2 (Homo sapiens, UniProt P62993)
[3] = target: T1, Growth factor receptor-bound protein 2; assay: Displacement of FITC-Ahx-PVPePYINQSVPKRK-NH2 from N-terminal His6-tagged human full length GRB2 (1 to 217 residues) expressed in Escherichia coli by fluorescence anisotropy assay
[4] = Apparent permeability of compound at 500 uM after 5 hrs by PAMPA assay; format: ADME

| permeability [1] [%] | Ki [2] [nM] | IC50 [3] [nM] | Papp at 5 h, 500 µM [4] [×10⁻⁶ cm/s] | SMILES |
| --- | --- | --- | --- | --- |
| 0 | 16 | 350 | – | NC(=O)C[C@@H]1NC(=O)C2(CCCCC2)NC(=O)C[C@@H](c2ccc(CP(=O)(O)O)cc2)/C=C/C[C@@H](Cc2cccc3ccccc23)CNC1=O |
| 24.3 | 140 | 740 | 19.2 | NC(=O)C[C@@H]1NC(=O)C2(CCCCC2)NC(=O)C[C@@H](c2ccc(CC(=O)O)cc2)/C=C/C[C@@H](Cc2cccc3ccccc23)CNC1=O |
| – | – | > 20000 | – | COC(=O)Cc1ccc([C@H]2/C=C/C[C@@H](Cc3cccc4ccccc34)CNC(=O)[C@H](CC(N)=O)NC(=O)C3(CCCCC3)NC(=O)C2)cc1 |
